According to US20220409593A1 (ARKUDA THERAPEUTICS, priority 2019, published 2022):

Test system: secreted mouse PGRN
Experiment: progranulin induction cellular assay (PGRN assay, ELISA-based readout)
Conditions: progranulin secreted into cell culture medium, cells named in method: mouse primary microglia, primary cortical neurons, BV-2
Method: Cellular Assays: To measure the efficacy of compounds, a progranulin induction cellular assay in mouse primary microglia (pMG), primary cortical neurons, and BV-2 cell lines is used. BV-2 cells are split the day before plating into a 96well plate format at approximately 80%. Cells should be plated the day before and allowed for 1 hour attachment period and for 16 hour incubation. Levels of progranulin secreted into the cell culture medium or retained in the cell lysate can be quantified using an ELISA-based readout and measurement of secreted mouse PGRN in the medium was assessed by the methodology published by Ghidoni et al. 2012. Standard ELISA kits to measure PGRN are available from vendors such as Adipogen, R&D, and Biovendor.
Table D below presents the results of a PGRN assay as described above.

Compound: Fc1cc(F)cc([C@H]2c3ccccc3CCN2C2=NC[C@@]3(CN4CCC3CC4)O2)c1 (racemic) [Compound 3036]
- EC50 (Mus musculus): 3750 nM

Compound: CN1CCCC2(CN=C(N3CCc4ccccc4[C@@H]3c3cccc(F)c3F)O2)C1 (mixture of isomers) [Compound 3042]
- EC50 (Mus musculus): 1030 nM

Compound: Fc1ccc([C@H]2c3ccccc3CCN2C2=NC[C@]3(CN4CCC3CC4)O2)cc1 (single isomer, unassigned) [Compound 3000]
- EC50 (Mus musculus): 250 nM

Compound: Fc1ccc([C@H]2c3ccccc3CCN2C2=NC[C@@]3(CN4CCC3CC4)O2)cc1 (single isomer, unassigned) [Compound 3001]
- EC50 (Mus musculus): 100 nM

Compound: CN1CCC[C@]2(CN=C(N3CCc4ccccc4[C@@H]3c3cc(F)c(F)c(F)c3)O2)C1 (single isomer, unassigned) [Compound 3002]
- EC50 (Mus musculus): 5080 nM

Compound: CN1CCC[C@@]2(CN=C(N3CCc4ccccc4[C@@H]3c3cc(F)c(F)c(F)c3)O2)C1 (single isomer, unassigned) [Compound 3003]
- EC50 (Mus musculus): 4280 nM

Compound: CN1CCC[C@]2(CN=C(N3CCc4ccccc4[C@@H]3c3cc(F)c(F)c(F)c3)O2)C1 (single isomer, unassigned) [Compound 3004]
- EC50: > 10000 nM

Compound: CN1CCC[C@@]2(CN=C(N3CCc4ccccc4[C@H]3c3cc(F)c(F)c(F)c3)O2)C1 (single isomer, unassigned) [Compound 3005]
- EC50 (Mus musculus): > 10000 nM

Compound: CN1CCC[C@]2(CN=C(N3CCc4ccccc4[C@@H]3c3cccc(F)c3)O2)C1 (single isomer, unassigned) [Compound 3006]
- EC50: 1000 nM

Compound: CN1CCC[C@@]2(CN=C(N3CCc4ccccc4[C@@H]3c3cccc(F)c3)O2)C1 (single isomer, unassigned) [Compound 3007]
- EC50 (Mus musculus): 370 nM

Compound: CN1CCC[C@]2(CN=C(N3CCc4ccccc4[C@H]3c3cccc(F)c3)O2)C1 (single isomer, unassigned) [Compound 3008]
- EC50 (Mus musculus): > 10000 nM

Compound: CN1CCC[C@]2(CN=C(N3CCc4ccccc4[C@@H]3c3cccc(F)c3)O2)C1 (single isomer, unassigned) [Compound 3009]
- EC50: 7020 nM

Compound: CN1CCC[C@]2(CN=C(N3CCc4ccccc4[C@@H]3c3cc(F)cc(F)c3)O2)C1 (single isomer, unassigned) [Compound 3010]
- EC50 (Mus musculus): 6390 nM

Compound: CN1CCC[C@@]2(CN=C(N3CCc4ccccc4[C@@H]3c3cc(F)cc(F)c3)O2)C1 (single isomer, unassigned) [Compound 3011]
- EC50 (Mus musculus): 7640 nM

Compound: CN1CCC[C@]2(CN=C(N3CCc4ccccc4[C@H]3c3cc(F)cc(F)c3)O2)C1 (single isomer, unassigned) [Compound 3012]
- EC50 (Mus musculus): > 10000 nM

Compound: CN1CCC[C@@]2(CN=C(N3CCc4ccccc4[C@H]3c3cc(F)cc(F)c3)O2)C1 (single isomer, unassigned) [Compound 3013]
- EC50 (Mus musculus): 1590 nM

Compound: CN1CCC[C@]2(CN=C(N3CCc4ccccc4[C@@H]3c3ccc(F)cc3F)O2)C1 (single isomer, unassigned) [Compound 3014]
- EC50 (Mus musculus): 1680 nM

Compound: CN1CCC[C@@]2(CN=C(N3CCc4ccccc4[C@@H]3c3ccc(F)cc3F)O2)C1 (single isomer, unassigned) [Compound 3015]
- EC50 (Mus musculus): 880 nM

Compound: Fc1ccc([C@H]2c3ccccc3CCN2C2=NC[C@@]3(CN4CCC3CC4)O2)c(F)c1 (single isomer, unassigned) [Compound 3016]
- EC50 (Mus musculus): 860 nM

Compound: Fc1ccc([C@H]2c3ccccc3CCN2C2=NC[C@]3(CN4CCC3CC4)O2)c(F)c1 (single isomer, unassigned) [Compound 3017]
- EC50 (Mus musculus): 260 nM

Compound: Fc1cccc([C@@H]2c3ccccc3CCN2C2=NC[C@@]3(CN4CCC3CC4)O2)c1F (single isomer, unassigned) [Compound 3018]
- EC50 (Mus musculus): > 10000 nM

Compound: Fc1cccc([C@H]2c3ccccc3CCN2C2=NC[C@]3(CN4CCC3CC4)O2)c1F (single isomer, unassigned) [Compound 3019]
- EC50 (Mus musculus): 300 nM

Compound: Fc1ccc([C@H]2c3ccccc3CCN2C2=NC[C@]3(CN4CCC3(F)CC4)O2)cc1 (single isomer, unassigned) [Compound 3033]
- EC50 (Mus musculus): 2380 nM

Compound: Fc1ccc([C@H]2c3ccccc3CCN2C2=NO[C@@]3(CN4CCC3(F)CC4)O2)cc1 (single isomer, unassigned) [Compound 3034]
- EC50 (Mus musculus): 450 nM

Compound: c1ccc([C@H]2c3ccccc3CCN2C2=NC[C@]3(CN4CCC3CC4)O2)cc1 (single isomer, unassigned) [Compound 3040]
- EC50 (Mus musculus): 1130 nM

Compound: c1ccc([C@H]2c3ccccc3CCN2C2=NC[C@@]3(CN4CCC3CC4)O2)cc1 (single isomer, unassigned) [Compound 3041]
- EC50 (Mus musculus): 1720 nM

Compound: CN1CC[C@@H](F)[C@]2(CN=C(N3CCc4ccccc4[C@@H]3c3ccc(F)cc3)O2)C1 (single isomer, unassigned) [Compound 3045]
- EC50 (Mus musculus): 4490 nM

Compound: CN1CCC(F)[C@]2(CN=C(N3CCc4ccccc4[C@@H]3c3ccc(F)cc3)O2)C1 (single isomer, unassigned) [Compound 3046]
- EC50 (Mus musculus): 3370 nM

Compound: Fc1ccc([C@H]2c3ccccc3CCN2C2=NC[C@]3(CCNC3)O2)cc1 (single isomer, unassigned) [Compound 3050]
- EC50 (Mus musculus): 15 nM

Compound: Fc1ccc([C@H]2c3ccccc3CCN2C2=N[C@]3(CCCNC3)CO2)cc1 (single isomer, unassigned) [Compound 3053]
- EC50 (Mus musculus): 250 nM

Compound: Fc1ccc([C@H]2c3ccccc3CCN2C2=N[C@@]3(CCCNC3)CO2)cc1 (single isomer, unassigned) [Compound 3054]
- EC50 (Mus musculus): 110 nM

Compound: Fc1ccc([C@H]2c3ccccc3CCN2C2=N[C@]3(CO2)CN2CCC3CC2)cc1 (single isomer, unassigned) [Compound 3057A]
- EC50 (Mus musculus): 231 nM

Compound: Fc1ccc([C@H]2c3ccccc3CCN2C2=N[C@@]3(CO2)CN2CCC3CC2)cc1 (single isomer, unassigned) [Compound 3057B]
- EC50 (Mus musculus): 126 nM

Compound: Fc1ccc([C@H]2c3ccccc3CCN2C2=NC[C@H]([C@@H]3CCNC3)O2)cc1 (single isomer, unassigned) [Compound 3063]
- EC50 (Mus musculus): 208 nM

Compound: Fc1ccc([C@H]2c3ccccc3CCN2C2=NCC([C@H]3CCNC3)O2)cc1 (single isomer, unassigned) [Compound 3064]
- EC50 (Mus musculus): 84.7 nM

Compound: Fc1ccc([C@H]2c3ccccc3CCN2C2=NC[C@@H]([C@H]3CCNC3)O2)cc1 (single isomer, unassigned) [Compound 3065]
- EC50 (Mus musculus): 244 nM

Compound: Fc1ccc([C@H]2c3ccccc3CCN2C2=NC[C@@H]([C@@H]3CCNC3)O2)cc1 (single isomer, unassigned) [Compound 3066]
- EC50 (Mus musculus): 55 nM

Compound: Fc1ccc([C@H]2c3ccccc3CCN2C2=NCC(C3CNC3)O2)cc1 (single isomer, unassigned) [Compound 3069]
- EC50 (Mus musculus): 109 nM

Compound: Fc1ccc([C@H]2c3ccccc3CCN2C2=NC[C@@H](C3CNC3)O2)cc1 (single isomer, unassigned) [Compound 3070]
- EC50 (Mus musculus): 96.6 nM

Compound: Fc1ccc([C@H]2c3ccccc3CCN2C2=N[C@H]([C@@H]3CCNC3)CO2)cc1 (single isomer, unassigned) [Compound 3071]
- EC50 (Mus musculus): 429 nM

Compound: Fc1ccc([C@H]2c3ccccc3CCN2C2=N[C@H]([C@H]3CCNC3)CO2)cc1 (single isomer, unassigned) [Compound 3072]
- EC50 (Mus musculus): 330 nM

Compound: Fc1ccc([C@H]2c3ccccc3CCN2C2=N[C@@H]([C@H]3CCNC3)CO2)cc1 (single isomer, unassigned) [Compound 3073]
- EC50 (Mus musculus): 66.9 nM

Compound: Fc1ccc([C@H]2c3ccccc3CCN2C2=N[C@@H]([C@@H]3CCNC3)CO2)cc1 (single isomer, unassigned) [Compound 3074]
- EC50 (Mus musculus): 338 nM

Compound: Fc1ccc([C@H]2c3ccccc3CCN2C2=NC[C@H]([C@@H]3CCCNC3)O2)cc1 (single isomer, unassigned) [Compound 3075]
- EC50 (Mus musculus): 222 nM

Compound: Fc1ccc([C@H]2c3ccccc3CCN2C2=NC[C@H]([C@H]3CCCNC3)O2)cc1 (single isomer, unassigned) [Compound 3076]
- EC50 (Mus musculus): > 10000 nM

Compound: Fc1ccc([C@H]2c3ccccc3CCN2C2=NC[C@@H]([C@H]3CCCNC3)O2)cc1 (single isomer, unassigned) [Compound 3077]
- EC50 (Mus musculus): 475 nM

Compound: N[C@H]1CC[C@]2(CN=C(N3CCc4ccccc4[C@@H]3c3ccc(F)cc3)O2)C1 (single isomer, unassigned) [Compound 3078]
- EC50 (Mus musculus): 127 nM

Compound: N[C@@H]1CC[C@]2(CN=C(N3CCc4ccccc4[C@@H]3c3ccc(F)cc3)O2)C1 (single isomer, unassigned) [Compound 3079]
- EC50 (Mus musculus): 236 nM

Compound: N[C@H]1CC[C@@]2(CN=C(N3CCc4ccccc4[C@@H]3c3ccc(F)cc3)O2)C1 (single isomer, unassigned) [Compound 3080]
- EC50 (Mus musculus): 110 nM

Compound: N[C@@H]1CC[C@@]2(CN=C(N3CCc4ccccc4[C@@H]3c3ccc(F)cc3)O2)C1 (single isomer, unassigned) [Compound 3081]
- EC50 (Mus musculus): 119 nM

Compound: N[C@H]1CCC[C@]12CN=C(N1CCc3ccccc3[C@@H]1c1ccc(F)cc1)O2 (single isomer, unassigned) [Compound 3086]
- EC50 (Mus musculus): 757 nM

Compound: Fc1ccc([C@H]2c3ccccc3CCN2C2=N[C@@H](C3CCNCC3)CO2)cc1 (single isomer, unassigned) [Compound 3133]
- EC50 (Mus musculus): 612 nM

Compound: Fc1ccc([C@H]2c3ccccc3CCN2C2=N[C@H](C3CCNCC3)CO2)cc1 (single isomer, unassigned) [Compound 3134]
- EC50 (Mus musculus): 312 nM

Compound: Fc1ccc([C@H]2c3ccccc3CCN2C2=NC[C@@H]([C@@H]3CCCNC3)O2)cc1 (single isomer, unassigned) [Compound 3149]
- EC50 (Mus musculus): 481 nM

Compound: CN1CCC[C@@H]([C@@H]2CN=C(N3CCc4ccccc4[C@@H]3c3ccc(F)cc3)O2)C1 (single isomer, unassigned) [Compound 3150]
- EC50 (Mus musculus): 266 nM

Compound: CN1CCC[C@@H]([C@H]2CN=C(N3CCc4ccccc4[C@@H]3c3ccc(F)cc3)O2)C1 (single isomer, unassigned) [Compound 3151]
- EC50 (Mus musculus): 3100 nM
